Measured values published in publication PMC13021292, “Safety, tolerability and pharmacokinetics of DNDI‐6148, a novel agent for leishmaniasis: A randomized, controlled, single ascending dose study in healthy participants” (British Journal of Clinical Pharmacology, 2025).

How the values were obtained:
[1] = human, in vivo, po, 220 mg
Description: This was a FIH, phase I, double‐blind, parallel, single ascending dose (SAD) study of DNDI‐6148 arginine monohydrate, administered as an oral suspension to healthy male participants. Cohorts 1–8 each included eight participants and were administered 10, 20, 40, 80, 160, 220, 300 or 380 mg (free form) of DNDI‐6148 (in six participants) or placebo (two participants).
At the clinical site, a suspension was prepared extemporaneously by the pharmacist within 24 h prior to administration to participants (the timepoint for which stability data of the suspension were available). The IP powder was suspended in 30 mL ORA‐Sweet® (Paddock Laboratories, LLC, Minneapolis, USA) for taste and colour masking. Participants were administered between 4 and 25 mL of the suspensions, followed by the ingestion of 250 mL tap water. Opaque precision syringes were used to administer the solutions to minimize the risk of unblinding. To preclude any dietary effects on the PK of DNDI‐6148, participants fasted for 9 h before they received the IP or placebo. Treatments were administered under the supervision of the investigator at approximately 8 a.m. on Day 1.
Blood samples (6 mL per time point) for pharmacokinetic analyses were collected on Day 1 pre‐dose and at the following post‐dose time points: 0.5,1, 1.5 (cohorts 1–4 only), 2, 2.5, 3, 4, 5 (cohorts 5–8 only), 6, 9, 12, 24, 48 and 72 h. […] Within 30 min of blood collection, blood samples were centrifuged at 1500g for 10 min at 4 °C and 500 μL of plasma were transferred into pre‐labelled polypropylene tubes prefilled with phosphoric acid 2% (1:1, v:v). Tubes were capped immediately for each time point, and the plasma was frozen in an upright position at −80 °C for storage.
Concentrations of DNDI‐6148 were determined in acidified plasma and acidified urine/BSA mixture using a validated internally standardized liquid chromatography–tandem mass spectrometry (LC–MS/MS) assay with deuterated d4‐DNDI‐6148 as an internal standard. The lower limit of quantitation (LOQ) for DNDI‐6148 was 1 ng/mL in plasma and 10 ng/mL in urine.
Values that were below the LOQ before the first concentration equal or above LOQ were set to zero. Other values below the LOQ were not used to calculate the PK parameters. The area under the plasma concentration‐time curve from time zero (pre‐dose) to the time of last quantifiable concentration (AUC0‐last) was calculated using the linear‐log trapezoidal rule. Elimination half‐life (t1/2) was calculated by the equation ln2/λz, after visual inspection of the plasma concentration‐time profiles (considering a minimum of 3 data points, including the last measurable data point and excluding Cmax).
PK parameters were derived from plasma concentration vs. time data using non‐compartmental analysis in Phoenix WinNonlin® 8.1 (Certara Inc., Princeton, NJ, USA). Plasma concentration vs. time data and PK parameters were listed and summarized by dose level, using descriptive statistics. Mean concentrations were calculated only if at least ⅔ of the individual concentrations were above the lower LOQ (LLOQ). […] Planned sampling times were used to summarize plasma concentration data; actual sampling times were used in the derivation of PK parameters.

[2] = Plasma CRP and TNFα pre- and post-dose (exploratory inflammation markers); assay type: in vivo, human; set-up: CRP plasma concentration, Mean / TNFα plasma concentration, Mean: unit not given here; conditions: for CRP change from pre-dose, Mean / CRP change from pre-dose, Median / CRP plasma concentration, Mean / CRP plasma concentration, Median / TNFα change from pre-dose, Mean / TNFα plasma concentration, Mean / TNFα plasma concentration, Median / TNFα change from pre-dose, Median: 6 h post-dose (D1-T6H)
Source text: Recruitment was temporarily interrupted on 16 March 2020 due to confinement measures related to the COVID‐19 outbreak in France. The study resumed on 17 August 2020, allowing for the completion of recruitment for cohorts 2, 3 and 4. Additionally, four participants were included in cohort 5 before suspension of the investigational product (IP) administration on 30 January 2021 as a precaution to assess emerging unexpected data in a non‐clinical Fertility and Early Embryonic Development study. The protocol was further amended to include evaluation of plasma concentrations of C‐reactive protein (CRP) and of tumour necrosis factor alpha (TNFα) pre and post‐dose (6 h) as exploratory markers of possible inflammation. Subsequent cohorts were completed up to the 380 mg dose level (cohort 8) without further interruption of the study.
Exploratory endpoints included ECG parameters compared to baseline and placebo; the exploratory identification of DNDI‐6148 metabolites; and, for the last four participants of the 160 mg cohort and the 220 mg, 300 mg and 380 mg cohorts, the exploratory evaluation of plasma concentrations of CRP and TNFα pre‐ and post‐dose.
Safety was assessed by monitoring AEs throughout the study. Other safety monitoring included 12‐lead ECG recordings, measurement of vital signs, physical and neurological examinations, haematology, blood biochemistry and urinalysis and, for the last four participants of the 160 mg cohort and onwards, CRP and TNFα.

L. infantum = conditions: 25 mg/kg BID for five or ten days; cited from earlier work

Cc1c(C(=O)Nc2ccc3c(c2)B(O)OC3)nnn1-c1ccccn1 [DNDI‐6148]
CL/F [1]: 2.55 L/h
CRP change from pre-dose, Mean ([2]; 160 mg, n 3): -0.03
CRP change from pre-dose, Median ([2]; 160 mg, n 3): 0.00
CRP plasma concentration, Mean ([2]; 160 mg, n 3): 0.80
CRP plasma concentration, Median ([2]; 160 mg, n 3): 0.60
TNFα change from pre-dose, Mean ([2]; 160 mg, n 3): 0.15
TNFα plasma concentration, Mean ([2]; 160 mg, n 3): 2.55
TNFα plasma concentration, Median ([2]; 160 mg, n 3): 2.58
CRP change from pre-dose, Mean ([2]; 220 mg, n 6): -0.03
CRP change from pre-dose, Median ([2]; 220 mg, n 6): 0.00
CRP plasma concentration, Mean ([2]; 220 mg, n 6): 0.72
CRP plasma concentration, Median ([2]; 220 mg, n 6): 0.60
TNFα change from pre-dose, Mean ([2]; 220 mg, n 6): -19.68
TNFα change from pre-dose, Median ([2]; 220 mg, n 6): -15.26
TNFα plasma concentration, Mean ([2]; 220 mg, n 6): 1.77
TNFα plasma concentration, Median ([2]; 220 mg, n 6): 1.74
CRP change from pre-dose, Mean ([2]; 300 mg, n 6): -0.13
CRP change from pre-dose, Median ([2]; 300 mg, n 6): -0.15
CRP plasma concentration, Mean ([2]; 300 mg, n 6): 2.47
CRP plasma concentration, Median ([2]; 300 mg, n 6): 1.15
TNFα change from pre-dose, Mean ([2]; 300 mg, n 6): -0.37
TNFα change from pre-dose, Median ([2]; 300 mg, n 6): 0.18
TNFα plasma concentration, Mean ([2]; 300 mg, n 6): 2.67
TNFα plasma concentration, Median ([2]; 300 mg, n 6): 2.62
TNFα change from pre-dose, Mean ([2]; 380 mg, n 4): 0.33
TNFα change from pre-dose, Median ([2]; 380 mg, n 4): 0.32
TNFα plasma concentration, Mean ([2]; 380 mg, n 4): 2.82
TNFα plasma concentration, Median ([2]; 380 mg, n 4): 2.75
CRP change from pre-dose, Mean ([2]; 380 mg, n 6): -0.02
CRP change from pre-dose, Median ([2]; 380 mg, n 6): 0.00
CRP plasma concentration, Mean ([2]; 380 mg, n 6): 0.87
CRP plasma concentration, Median ([2]; 380 mg, n 6): 0.60
plasma CRP and TNFα concentrations post‐dose compared with pre‐dose ([2]; last four participants of 160 mg cohort and 220–380 mg cohorts): not significantly increased
efficacy by oral route in L. infantum hamster model of VL (L. infantum): demonstrated efficacy
